Test results as given in PMC13276840, “Deacetylation of β‑Mannans by Two Complementary Carbohydrate Esterases from the Human Gut Microbe Bacteroides cellulosilyticus” (Biochemistry, 2026).

Key:
BcCE7 = biological target: T1, BcCE7 (Bacteroides cellulosilyticus, UniProt E2NDM1); experiment: transacetylation, MALDI-ToF MS; type: biochemical; conditions: acyl acceptor with vinyl acetate donor, […] enzyme, […] sodium phosphate pH […] °C
T1 construct: gene BACCELL_02381; N-terminal signal peptide removed, His tag (removal not mentioned), pET28a(+), synthetic gene, E. coli BL21 STAR
T1 sequence (E2NDM1 7-414 limits assumed): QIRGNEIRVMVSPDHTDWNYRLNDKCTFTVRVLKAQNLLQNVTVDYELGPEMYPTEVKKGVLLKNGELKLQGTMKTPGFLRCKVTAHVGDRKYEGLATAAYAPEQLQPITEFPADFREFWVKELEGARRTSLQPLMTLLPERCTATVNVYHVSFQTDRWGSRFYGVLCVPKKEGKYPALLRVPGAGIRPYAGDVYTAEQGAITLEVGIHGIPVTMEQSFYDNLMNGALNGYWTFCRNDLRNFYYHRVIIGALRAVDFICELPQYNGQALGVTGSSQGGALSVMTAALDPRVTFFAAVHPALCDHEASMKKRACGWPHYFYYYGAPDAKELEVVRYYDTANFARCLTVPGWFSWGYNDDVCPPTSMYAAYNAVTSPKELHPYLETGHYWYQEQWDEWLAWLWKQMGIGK

BcCE25 = biological target: T2, BcCE25 (Bacteroides cellulosilyticus, UniProt E2NCW7); experiment: transacetylation, MALDI-ToF MS and NMR; type: biochemical; conditions: acyl acceptor with vinyl acetate donor, 200 nM enzyme, 10 mM sodium phosphate pH 5.9, 25 °C
T2 construct: gene BACCELL_02125; N-terminal signal peptide removed, His tag (removal not mentioned), pET30a(+), synthetic gene, E. coli BL21 STAR
T2 sequence (E2NCW7 20-263): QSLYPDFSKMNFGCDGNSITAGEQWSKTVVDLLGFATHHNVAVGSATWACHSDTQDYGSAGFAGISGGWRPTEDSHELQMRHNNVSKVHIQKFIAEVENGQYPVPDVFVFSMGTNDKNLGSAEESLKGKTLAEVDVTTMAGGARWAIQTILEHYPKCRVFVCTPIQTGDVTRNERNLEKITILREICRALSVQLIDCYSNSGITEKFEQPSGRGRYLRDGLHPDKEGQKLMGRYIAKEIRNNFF

With OC[C@H]1O[C@@H](O[C@H]2[C@H](O)[C@H](O)[C@H](O[C@H]3[C@H](O)[C@H](O)[C@H](O[C@H]4[C@H](O)[C@H](O)C(O)O[C@@H]4CO)O[C@@H]3CO)O[C@@H]2CO)[C@@H](O)[C@@H](O)[C@@H]1O (some centres unmarked) [mannotetraose] the “transacetylation, MALDI-ToF MS” value (BcCE7) was “On mannotetraose, BcCE7 transferred mainly one acetyl group” and the “transacetylation, MALDI-ToF MS and NMR” value (BcCE25) was “BcCE25 transferred up to three acetylations”.
